Reference: the supplement of paper PMC10307832

Experiments:
Assay in all cases: relative viability (nuclei count vs DMSO), 5 days (fraction); higher = more cells survive
CUDC-101 + Foretinib = compound: C#Cc1cccc(Nc2ncnc3cc(OC)c(OCCCCCCC(=O)NO)cc23)c1 [CUDC-101] + COc1cc2c(Oc3ccc(NC(=O)C4(C(=O)Nc5ccc(F)cc5)CC4)cc3F)ccnc2cc1OCCCN1CCOCC1 [Foretinib] (partner 0.25 µM)
In short: (§1)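 Cells from lung cancer lines were seeded into 1536-well plates and, one day later, dosed by pin tool. Treatments were either a single drug or a fixed dose of an anchor drug with five library-drug doses (not always all listed) in √10 steps. After 5 days, nuclei were stained in a one-step fixation (final 0.05% Triton X-100, 1% formaldehyde, 1 ug/ml Hoechst) and counted on 4× images, and relative viability is the treated-to-vehicle nuclei ratio, as the median of duplicate plates.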

CUDC-101 + OSI-027 = compound: C#Cc1cccc(Nc2ncnc3cc(OC)c(OCCCCCCC(=O)NO)cc23)c1 [CUDC-101] + COc1cccc2cc(-c3nc([C@H]4CC[C@H](C(=O)O)CC4)n4ncnc(N)c34)[nH]c12 [OSI-027] (partner 0.5 µM)
In short: as §1

CUDC-101 + Tozasertib = compound: C#Cc1cccc(Nc2ncnc3cc(OC)c(OCCCCCCC(=O)NO)cc23)c1 [CUDC-101] + Cc1cc(Nc2cc(N3CCN(C)CC3)nc(Sc3ccc(NC(=O)C4CC4)cc3)n2)n[nH]1 [Tozasertib] (partner 0.1 µM)
In short: as §1

Vandetanib + Olaparib = compound: COc1cc2/c(=N/c3ccc(Br)cc3F)nc[nH]c2cc1OCC1CCN(C)CC1 [Vandetanib] + O=C(c1cc(Cc2n[nH]c(=O)c3ccccc23)ccc1F)N1CCN(C(=O)C2CC2)CC1 [Olaparib] (partner 8 µM)
In short: as §1

Cell Line | relative viability (CUDC-101 + Foretinib; first compound 0.01 µM) | relative viability (CUDC-101 + Foretinib; first compound 0.03162 µM) | relative viability (CUDC-101 + Foretinib; first compound 0.1 µM) | relative viability (CUDC-101 + Foretinib; first compound 0.3162 µM) | relative viability (CUDC-101 + Foretinib; first compound 1 µM) | relative viability (CUDC-101 + OSI-027; first compound 0.01 µM) | relative viability (CUDC-101 + OSI-027; first compound 0.03162 µM) | relative viability (CUDC-101 + OSI-027; first compound 0.1 µM) | relative viability (CUDC-101 + OSI-027; first compound 0.3162 µM) | relative viability (CUDC-101 + OSI-027; first compound 1 µM) | relative viability (CUDC-101 + Tozasertib; first compound 0.01 µM) | relative viability (CUDC-101 + Tozasertib; first compound 0.03162 µM) | relative viability (CUDC-101 + Tozasertib; first compound 0.1 µM) | relative viability (CUDC-101 + Tozasertib; first compound 0.3162 µM) | relative viability (CUDC-101 + Tozasertib; first compound 1 µM) | relative viability (Vandetanib + Olaparib; first compound 0.02 µM) | relative viability (Vandetanib + Olaparib; first compound 0.06325 µM) | relative viability (Vandetanib + Olaparib; first compound 0.2 µM) | relative viability (Vandetanib + Olaparib; first compound 0.6325 µM) | relative viability (Vandetanib + Olaparib; first compound 2 µM)
NCI-H2405 | 1.09 | 0.991 | 1.08 | 1.16 | 1.04 | 0.643 | 0.613 | 0.721 | 0.734 | 0.541 | 0.748 | 0.809 | 0.725 | 0.756 | 0.611 | 0.835 | 0.816 | 0.895 | 0.948 | 0.837
NCI-H650 | 1.07 | 1.01 | 1.03 | 1.15 | 0.801 | 0.58 | 0.569 | 0.622 | 0.587 | 0.474 | 0.844 | 0.733 | 0.639 | 0.599 | 0.369 | 0.359 | 0.361 | 0.392 | 0.409 | 0.445
HCC-366 | 0.939 | 0.93 | 0.95 | 0.847 | 0.882 | 0.914 | 0.768 | 1.01 | 1.15 | 0.815 | 0.127 | 0.111 | 0.0975 | 0.111 | 0.0886 | 0.438 | 0.34 | 0.389 | 0.362 | 0.31
NCI-H838 | 1.04 | 1.02 | 1.08 | 1.23 | 0.862 | 0.411 | 0.354 | 0.431 | 0.523 | 0.391 | 0.265 | 0.266 | 0.329 | 0.265 | 0.264 | 0.773 | 0.769 | 0.776 | 0.764 | 0.74
